{"source": "ChEMBL document CHEMBL3352057", "about": "“Novel fluorinated pyrrolo[1,2-a]pyrazine-2,6-dione derivatives: synthesis and anticonvulsant evaluation in animal models of epilepsy” (Bioorg Med Chem, 2014)", "key": {"Mus musculus [1]": {"system": "Mus musculus", "test": "Neurotoxicity in 32 mA current-induced seizure albino CF1 mouse model at 100 mg/kg, ip measured after 0.5 hr", "format": "toxicity, organism-based", "parameters": "dose 100 mg/kg, route intraperitoneal", "conditions": "in vivo"}, "Mus musculus [2]": {"system": "Mus musculus", "test": "Neurotoxicity in albino CF1 mouse at 100 mg/kg, ip measured after 1 hr", "format": "toxicity, organism-based", "parameters": "dose 100 mg/kg, route intraperitoneal", "conditions": "in vivo"}, "Mus musculus [3]": {"system": "Mus musculus", "test": "Anticonvulsant activity in albino CF1 mouse assessed as protection against maximal electroshock-induced seizures at 100 mg/kg, ip measured after 1 hr", "format": "functional, organism-based", "parameters": "dose 100 mg/kg"}, "Mus musculus [4]": {"system": "Mus musculus", "test": "Anticonvulsant activity in albino CF1 mouse assessed as protection against 32 mA current-induced seizures at 100 mg/kg, ip measured after 2 hrs", "format": "functional, organism-based", "parameters": "dose 100 mg/kg"}, "Mus musculus [5]": {"system": "Mus musculus", "test": "Anticonvulsant activity in ip dosed albino CF1 mouse assessed as protection against 44 mA current-induced seizures", "format": "functional"}, "Mus musculus [6]": {"system": "Mus musculus", "test": "Anticonvulsant activity in albino CF1 mouse assessed as protection against 32 mA current-induced seizures at 100 mg/kg, ip measured after 4 hrs", "format": "functional, organism-based", "parameters": "dose 100 mg/kg"}, "[7]": {"test": "Neurotoxicity in ip dosed albino CF1 mouse", "format": "toxicity, organism-based", "conditions": "in vivo"}, "Rattus norvegicus [8]": {"system": "Rattus norvegicus", "test": "Anticonvulsant activity in Sprague-Dawley rat assessed as protection against maximal electroshock-induced seizures at 30 mg/kg, po measured after 0.25 hr", "format": "functional, organism-based", "parameters": "dose 30 mg/kg"}, "Rattus norvegicus [9]": {"system": "Rattus norvegicus", "test": "Neurotoxicity in MES Sprague-Dawley rat model at 30 mg/kg, ip measured after 1 hr", "format": "toxicity, organism-based", "parameters": "dose 30 mg/kg, route intraperitoneal", "conditions": "in vivo"}, "Mus musculus [10]": {"system": "Mus musculus", "test": "Anticonvulsant activity in albino CF1 mouse assessed as protection against 44 mA current-induced seizures at 100 mg/kg, ip measured after 1 hr", "format": "functional, organism-based", "parameters": "dose 100 mg/kg"}, "Mus musculus [11]": {"system": "Mus musculus", "test": "Anticonvulsant activity in albino CF1 mouse assessed as protection against 44 mA current-induced seizures at 100 mg/kg, ip measured after 0.25 hr", "format": "functional, organism-based", "parameters": "dose 100 mg/kg"}, "Mus musculus [12]": {"system": "Mus musculus", "test": "Anticonvulsant activity in ip dosed albino CF1 mouse assessed as protection against subcutaneous metrazol-induced seizures", "format": "functional"}, "Mus musculus [13]": {"system": "Mus musculus", "test": "Anticonvulsant activity in albino CF1 mouse assessed as protection against iv infusion metrazol-induced seizures measured as clonus at 79 mg/kg, ip (reference value: 31.1 mg/kg)", "format": "functional"}, "Rattus norvegicus [14]": {"system": "Rattus norvegicus", "test": "Anticonvulsant activity in Sprague-Dawley rat assessed as protection against maximal electroshock-induced seizures at 30 mg/kg, ip measured after 1 hr", "format": "functional, organism-based", "parameters": "dose 30 mg/kg"}, "Rattus norvegicus [15]": {"system": "Rattus norvegicus", "test": "Neurotoxicity in MES Sprague-Dawley rat model at 30 mg/kg, po measured after 2 hrs", "format": "toxicity, organism-based", "parameters": "dose 30 mg/kg, route oral", "conditions": "in vivo"}, "Mus musculus [16]": {"system": "Mus musculus", "test": "Anticonvulsant activity in ip dosed albino CF1 mouse assessed as protection against 32 mA current-induced seizures", "format": "functional"}, "Mus musculus [17]": {"system": "Mus musculus", "test": "Anticonvulsant activity in ip dosed albino CF1 mouse assessed as protection against maximal electroshock-induced seizures measured as time to peak effect", "format": "functional"}, "Mus musculus [18]": {"system": "Mus musculus", "test": "Anticonvulsant activity in albino CF1 mouse assessed as protection against iv infusion metrazol-induced seizures measured as time to twitch at 24 mg/kg, ip (reference value: 26.6 seconds)", "format": "functional"}, "Mus musculus [19]": {"system": "Mus musculus", "test": "Anticonvulsant activity in albino CF1 mouse assessed as protection against 44 mA current-induced seizures at 100 mg/kg, ip measured after 2 hrs", "format": "functional, organism-based", "parameters": "dose 100 mg/kg"}, "Rattus norvegicus [20]": {"system": "Rattus norvegicus", "test": "Anticonvulsant activity in Sprague-Dawley rat assessed as protection against maximal electroshock-induced seizures at 30 mg/kg, ip measured after 4 hrs", "format": "functional, organism-based", "parameters": "dose 30 mg/kg"}, "Rattus norvegicus [21]": {"system": "Rattus norvegicus", "test": "Anticonvulsant activity in ip dosed Sprague-Dawley rat assessed as protection against maximal electroshock-induced seizures measured as time to peak effect", "format": "functional"}, "Mus musculus [22]": {"system": "Mus musculus", "test": "Neurotoxicity in albino CF1 mouse at 100 mg/kg, ip measured after 4 hrs", "format": "toxicity, organism-based", "parameters": "dose 100 mg/kg, route intraperitoneal", "conditions": "in vivo"}, "Mus musculus [23]": {"system": "Mus musculus", "test": "Anticonvulsant activity in albino CF1 mouse assessed as protection against maximal electroshock-induced seizures at 100 mg/kg, ip measured after 0.5 hr", "format": "functional, organism-based", "parameters": "dose 100 mg/kg"}, "Rattus norvegicus [24]": {"system": "Rattus norvegicus", "test": "Anticonvulsant activity in Sprague-Dawley rat assessed as protection against maximal electroshock-induced seizures at 30 mg/kg, ip measured after 0.5 hr", "format": "functional, organism-based", "parameters": "dose 30 mg/kg"}, "Mus musculus [25]": {"system": "Mus musculus", "test": "Neurotoxicity in 32 mA current-induced seizure albino CF1 mouse model at 100 mg/kg, ip measured after 0.25 hr", "format": "toxicity, organism-based", "parameters": "dose 100 mg/kg, route intraperitoneal", "conditions": "in vivo"}, "Rattus norvegicus [26]": {"system": "Rattus norvegicus", "test": "Anticonvulsant activity in Sprague-Dawley rat assessed as protection against maximal electroshock-induced seizures at 30 mg/kg, ip measured after 0.25 hr", "format": "functional, organism-based", "parameters": "dose 30 mg/kg"}, "Rattus norvegicus [27]": {"system": "Rattus norvegicus", "test": "Anticonvulsant activity in ip dosed Sprague-Dawley rat assessed as protection against subcutaneous metrazol-induced seizures", "format": "functional"}, "Mus musculus [28]": {"system": "Mus musculus", "test": "Neurotoxicity in 32 mA current-induced seizure albino CF1 mouse model at 100 mg/kg, ip measured after 1 hr", "format": "toxicity, organism-based", "parameters": "dose 100 mg/kg, route intraperitoneal", "conditions": "in vivo"}, "Rattus norvegicus [29]": {"system": "Rattus norvegicus", "test": "Anticonvulsant activity in Sprague-Dawley rat assessed as protection against maximal electroshock-induced seizures at 30 mg/kg, po measured after 0.5 hr", "format": "functional, organism-based", "parameters": "dose 30 mg/kg"}, "Mus musculus [30]": {"system": "Mus musculus", "test": "Anticonvulsant activity in albino CF1 mouse assessed as protection against maximal electroshock-induced seizures at 100 mg/kg, ip measured after 0.25 hr", "format": "functional, organism-based", "parameters": "dose 100 mg/kg"}, "Rattus norvegicus [31]": {"system": "Rattus norvegicus", "test": "Anticonvulsant activity in ip dosed hippocampal kindled albino Sprague-Dawley rat seizure model", "format": "functional", "conditions": "Hippocampus"}}, "note": "Activity calls are given as the source filed them. No cut-off for these calls is given here."}
{"smiles": "O=C1NC(=O)[C@@H]2CCCN2[C@H]1c1cccc(OC(F)(F)F)c1", "values": [{"measurement": "Activity", "setting": "Mus musculus [1]", "value": "Non-toxic"}, {"measurement": "Activity", "setting": "Mus musculus [2]", "value": "Non-toxic"}, {"measurement": "Activity", "setting": "Mus musculus [3]", "value": "Active"}, {"measurement": "Activity", "setting": "Mus musculus [4]", "value": "inactive"}, {"measurement": "ED50", "setting": "Mus musculus [5]", "value": 171, "unit": "µmol/kg"}, {"measurement": "Activity", "setting": "Mus musculus [6]", "value": "inactive"}, {"measurement": "TD50", "setting": "[7]", "value": 252, "unit": "µmol/kg"}, {"measurement": "Activity", "setting": "Rattus norvegicus [8]", "value": "inactive"}, {"measurement": "Activity", "setting": "Rattus norvegicus [9]", "value": "Non-toxic"}, {"measurement": "Activity", "setting": "Mus musculus [10]", "value": "Active"}, {"measurement": "Activity", "setting": "Mus musculus [11]", "value": "Active"}, {"measurement": "ED50", "setting": "Mus musculus [12]", "value": 200, "unit": "µmol/kg"}, {"measurement": "Activity", "setting": "Mus musculus [13]", "value": 97.2, "unit": "mg/kg"}, {"measurement": "Activity", "setting": "Rattus norvegicus [14]", "value": "Active"}, {"measurement": "Activity", "setting": "Rattus norvegicus [15]", "value": "Non-toxic"}, {"measurement": "ED50", "setting": "Mus musculus [16]", "value": 176, "unit": "µmol/kg"}, {"measurement": "Time", "setting": "Mus musculus [17]", "value": 0.25, "unit": "h"}, {"measurement": "Time", "setting": "Mus musculus [18]", "value": 33.3, "unit": "s"}, {"measurement": "Activity", "setting": "Mus musculus [19]", "value": "inactive"}, {"measurement": "Activity", "setting": "Rattus norvegicus [20]", "value": "inactive"}, {"measurement": "Time", "setting": "Rattus norvegicus [21]", "value": 0.25, "unit": "h"}, {"measurement": "Activity", "setting": "Mus musculus [22]", "value": "Non-toxic"}, {"measurement": "Activity", "setting": "Mus musculus [23]", "value": "Active"}, {"measurement": "Activity", "setting": "Rattus norvegicus [24]", "value": "Active"}, {"measurement": "Activity", "setting": "Mus musculus [25]", "value": "Toxic"}, {"measurement": "Activity", "setting": "Rattus norvegicus [26]", "value": "Active"}, {"measurement": "ED50", "setting": "Rattus norvegicus [27]", "value": 41, "unit": "µmol/kg"}, {"measurement": "Activity", "setting": "Mus musculus [28]", "value": "Non-toxic"}, {"measurement": "Activity", "setting": "Rattus norvegicus [29]", "value": "inactive"}, {"measurement": "Activity", "setting": "Mus musculus [30]", "value": "Active"}, {"measurement": "ED50", "setting": "Rattus norvegicus [31]", "value": 48, "unit": "µmol/kg"}]}
